Laboratory results from patent publication US7786046B2, “Benzoyl-substituted serineamides” (BASF Aktiengesellschaft, priority 2005, dated 2010).

A melting point of 212 °C was found for `CNC(=O)C(NC(=O)c1ccc(F)cc1C(F)(F)F)C(O)C(F)(F)F` (racemic) [Compound 3.1, 4-Fluoro-N-(3,3,3-trifluoro-2-hydroxy-1-methylcarbamoylpropyl)-2-trifluoromethylbenzamide] in this work. A melting point of 163 °C was found for `C=CC(O)C(NC(=O)c1ccc(F)cc1C(F)(F)F)C(=O)NC` (racemic) [Compound 3.3, N-(2-Hydroxy-1-methylcarbamoylbut-3-enyl)-4-fluoro-2-trifluoromethylbenzamide] in this work. A melting point of 140 °C was found for `CNC(=O)C(NC(=O)c1ccc(F)cc1C(F)(F)F)C(O)/C(Cl)=C/c1ccccc1` (racemic) [Compound 3.7, N-(3-Chloro-2-hydroxy-1-methylcarbamoyl-4-phenylbut-3-enyl)-4-fluoro-2-trifluoromethylbenzamide] in this work. A melting point of 163 °C was found for `CNC(=O)C(NC(=O)c1ccc(F)cc1C(F)(F)F)C(O)CO` (stereo not shown) [Compound 3.8, 2-(4-Fluoro-2-trifluoromethylbenzoylamino)-3,4-dihydroxy-N-methylbutyramide] in this work.
